According to patent US8158637B2, “Quinazolines useful as modulators of voltage gated ion channels” (Vertex Pharmaceuticals Incorporated, priority 2005, dated 2012):

Molecular target: T1, NaV 1.8 channel (Homo sapiens, UniProt Q9Y5Y9)
T1 construct: expressed in transfected cells; host or cells: HEK293
Assay: VIPR optical membrane potential assay with electrical stimulation, NaV1.8 inhibition
Assay type: cell-based
Conditions: activity against NaV 1.8 channel
Description: Compounds of the invention are useful as antagonists of voltage-gated sodium ion channels. Antagonist properties of test compounds were assessed as follows. Cells expressing the NaV of interest were placed into microtiter plates. After an incubation period, the cells were stained with fluorescent dyes sensitive to the transmembrane potential. The test compounds were added to the microtiter plate. The cells were stimulated with either a chemical or electrical means to evoke a NaV dependent membrane potential change from unblocked channels, which was detected and measured with trans-membrane potential-sensitive dyes. Antagonists were detected as a decreased membrane potential response to the stimulus. The optical membrane potential assay utilized voltage-sensitive FRET sensors described by Gonzalez and Tsien (See, Gonzalez, J. E. and R. Y. Tsien (1995) “Voltage sensing by fluorescence resonance energy transfer in single cells” Biophys J 69(4): 1272-80, and Gonzalez, J. E. and R. Y. Tsien (1997) “Improved indicators of cell membrane potential that use fluorescence resonance energy transfer” Chem Biol 4(4): 269-77) in combination with instrumentation for measuring fluorescence changes such as the Voltage/Ion Probe Reader (VIPR®) (See, Gonzalez, J. E., K. Oades, et al. (1999) “Cell-based assays and instrumentation for screening ion-channel targets” Drug Discov Today 4(9): 431-439).
C) VIPR® Optical Membrane Potential Assay Method with Electrical Stimulation
The following was an example of how NaV1.8 inhibition activity was measured using the optical membrane potential method #2. Other subtypes were performed in an analogous mode in a cell line expressing the NaV of interest.
HEK293 cells stably expressing NaV1.8 were plated into 96-well microtiter plates. After an appropriate incubation period, the cells were stained with the voltage sensitive dyes CC2-DMPE/DiSBAC6(3) as follows.
2×CC2-DMPE/DiSBAC6(3)=8 μM CC2-DMPE/8 μM DiSBAC6(3): 10 mM CC2-DMPE and DiSBAC6(3) was vortexed with an equivalent volume of 10% pluronic, followed by vortexing in required amount of Bath Solution #1. Each cell plate required 5 mL of 2×CC2-DMPE/DiSBAC6(3). 50 μL of 2×CC2-DMPE/DiSBAC6(3) was added to wells containing washed cells, resulting in a 4 μM final staining concentration of both dyes. The cells were stained for 30 minutes in the dark at RT.
2×ABSC1=1 mM ABSC1: The required amount of 200 mM ABSC1 was added to a 50 ml conical tube and mixed with 1 μL 10% pluronic for each mL of solution made and vortexed together. Then Bath Solution #1 was added to make up a 2× solution. Finally, the ABSC1 was added.
The 2×ABSC1 solution was used to solvate compound plates. Note that compound plates were made at 2× drug concentration. The stained plate was washed again, leaving residual volume of 50 μL. Added 50 μL/well of the 2×ABSC1. The cells were stained for 30 minutes in the dark at RT.
The electrical stimulation instrument and methods of use are described in ION Channel Assay Methods PCT/US01/21652 and Nat Biotech 2006, 24(4), 439-446, both herein incorporated by reference. The instrument comprises a microtiter plate handler, an optical system for exciting the coumarin dye while simultaneously recording the coumarin and oxonol emissions, a waveform generator, a current- or voltage-controlled amplifier, and a device for inserting electrodes in well. Under integrated computer control, this instrument passed user-programmed electrical stimulus protocols to cells within the wells of the microtiter plate.
Assay Protocol • 1. Inserted or used electrodes into each well that was assayed. • 2. Used the current-controlled amplifier to deliver stimulation wave pulses for 3 s. Two seconds of pre-stimulus recording was performed to obtain the un-stimulated intensities. Five seconds of post-stimulation recording was performed to examine the relaxation to the resting state. […]

T1 sequence (Q9Y5Y9 whole entry): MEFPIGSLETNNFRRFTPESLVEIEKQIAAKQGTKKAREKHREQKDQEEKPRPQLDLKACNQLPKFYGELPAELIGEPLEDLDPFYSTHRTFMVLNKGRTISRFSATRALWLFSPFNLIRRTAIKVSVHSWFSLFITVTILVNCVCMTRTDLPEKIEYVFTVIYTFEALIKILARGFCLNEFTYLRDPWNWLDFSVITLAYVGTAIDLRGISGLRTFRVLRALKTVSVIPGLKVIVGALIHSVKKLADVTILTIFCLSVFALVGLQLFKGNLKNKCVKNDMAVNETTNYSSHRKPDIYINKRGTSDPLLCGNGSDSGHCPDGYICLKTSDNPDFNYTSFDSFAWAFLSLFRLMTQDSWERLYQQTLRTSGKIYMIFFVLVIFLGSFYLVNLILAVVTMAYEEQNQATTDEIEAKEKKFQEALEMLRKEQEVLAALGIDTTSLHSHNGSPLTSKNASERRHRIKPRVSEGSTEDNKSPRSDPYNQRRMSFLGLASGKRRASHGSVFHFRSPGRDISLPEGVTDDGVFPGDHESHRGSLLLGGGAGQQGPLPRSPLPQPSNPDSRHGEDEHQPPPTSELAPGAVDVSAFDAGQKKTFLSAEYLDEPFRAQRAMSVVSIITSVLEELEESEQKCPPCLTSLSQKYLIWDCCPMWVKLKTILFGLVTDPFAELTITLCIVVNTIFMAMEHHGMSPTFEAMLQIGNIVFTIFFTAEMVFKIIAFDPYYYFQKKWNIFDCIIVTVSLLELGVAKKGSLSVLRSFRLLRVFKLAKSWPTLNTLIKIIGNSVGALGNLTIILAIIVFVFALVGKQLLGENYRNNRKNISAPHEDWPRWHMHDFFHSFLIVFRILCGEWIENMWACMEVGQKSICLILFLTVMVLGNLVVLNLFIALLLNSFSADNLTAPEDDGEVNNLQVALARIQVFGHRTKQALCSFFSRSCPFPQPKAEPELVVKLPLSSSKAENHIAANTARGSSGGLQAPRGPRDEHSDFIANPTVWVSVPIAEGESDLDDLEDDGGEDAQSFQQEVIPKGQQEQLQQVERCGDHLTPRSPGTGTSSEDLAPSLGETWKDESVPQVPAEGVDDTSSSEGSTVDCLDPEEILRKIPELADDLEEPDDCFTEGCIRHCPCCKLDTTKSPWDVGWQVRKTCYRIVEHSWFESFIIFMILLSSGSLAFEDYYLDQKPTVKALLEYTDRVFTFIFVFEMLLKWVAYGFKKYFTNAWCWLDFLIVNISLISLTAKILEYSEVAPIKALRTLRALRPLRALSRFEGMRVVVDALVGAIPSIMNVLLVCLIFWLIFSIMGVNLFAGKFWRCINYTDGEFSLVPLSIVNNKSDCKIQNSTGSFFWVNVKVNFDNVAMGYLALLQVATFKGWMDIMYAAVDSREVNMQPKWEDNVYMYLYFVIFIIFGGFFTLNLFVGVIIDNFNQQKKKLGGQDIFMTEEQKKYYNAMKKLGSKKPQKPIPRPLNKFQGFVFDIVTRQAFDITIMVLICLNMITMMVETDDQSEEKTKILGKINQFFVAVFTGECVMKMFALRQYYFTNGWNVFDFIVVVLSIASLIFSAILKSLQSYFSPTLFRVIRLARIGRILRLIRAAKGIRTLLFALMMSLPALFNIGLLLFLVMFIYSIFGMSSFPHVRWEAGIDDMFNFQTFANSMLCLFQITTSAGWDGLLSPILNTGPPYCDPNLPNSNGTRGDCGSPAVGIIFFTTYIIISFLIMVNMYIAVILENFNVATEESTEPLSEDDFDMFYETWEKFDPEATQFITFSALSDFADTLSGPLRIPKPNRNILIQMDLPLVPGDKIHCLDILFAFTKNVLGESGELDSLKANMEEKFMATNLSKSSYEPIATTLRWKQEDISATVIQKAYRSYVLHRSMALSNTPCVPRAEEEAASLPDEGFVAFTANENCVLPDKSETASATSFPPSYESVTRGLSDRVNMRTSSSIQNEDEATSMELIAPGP

Row | Compound | IC50
1 | CC(C)COC(=O)N[C@@H]1CCN(c2nc(-c3ccccc3O)nc3ccc(F)cc23)C1 [Compound 15, (R)-Isobutyl 1-(6-fluoro-2-(2-hydroxyphenyl)quinazolin-4-yl)pyrrolidin-3-ylcarbamate] | 1000 to 5000 nM
2 | Cc1ccc2c(N3CC[C@@H](NC(=O)OCC(C)(C)C)C3)nc(-c3ccccc3O)nc2c1 [Compound 9, (R)-Neopentyl 1-(2-(2-hydroxyphenyl)-7-methylquinazolin-4-yl)pyrrolidin-3-ylcarbamate] | < 1000 nM
3 | COCCOC(=O)N[C@@H]1CCN(c2nc(-c3ccccc3O)nc3cc(C)ccc23)C1 [Compound 14, (R)-2-Methoxyethyl 1-(2-(2-hydroxyphenyl)-7-methylquinazolin-4-yl)pyrrolidin-3-ylcarbamate] | 1000 to 5000 nM
4 | Cc1ccc2c(N3CC[C@H](NC(=O)OCC(C)C)C3)nc(-c3ccccc3O)nc2c1 [Compound 7, (S)-{1-[2-(2-Hydroxy-phenyl)-7-methyl-quinazolin-4-yl]-pyrrolidin-3-yl}-carbamic acid isobutyl ester] | 1000 to 5000 nM
5 | Cc1ccc2c(N3CC[C@@H](NC(=O)OC(C)C)C3)nc(-c3ccccc3O)nc2c1 [Compound 12, (R)-Isopropyl 1-(2-(2-hydroxyphenyl)-7-methylquinazolin-4-yl)pyrrolidin-3-ylcarbamate] | < 1000 nM
6 | CCOC(=O)N[C@@H]1CCN(c2nc(-c3ccccc3O)nc3cc(C)ccc23)C1 [Compound 2, (R)-Ethyl 1-(2-(2-hydroxyphenyl)-7-methylquinazolin-4-yl)pyrrolidin-3-ylcarbamate] | < 1000 nM
7 | Cc1ccc2c(N3CC[C@@H](NC(=O)OCC(C)(C)C)C3)nc(-c3ccccc3C(F)F)nc2c1 [Compound 18, (R)-Neopentyl 1-(2-(2-(difluoromethyl)phenyl)-7-methylquinazolin-4-yl)pyrrolidin-3-ylcarbamate] | < 1000 nM
8 | CCCOC(=O)N[C@@H]1CCN(c2nc(-c3ccccc3O)nc3cc(C)ccc23)C1 [Compound 3, (R)-Propyl 1-(2-(2-hydroxyphenyl)-7-methylquinazolin-4-yl)pyrrolidin-3-ylcarbamate] | < 1000 nM
9 | Cc1ccc2c(N3CC[C@@H](NC(=O)OCC(C)(C)C)C3)nc(-c3c(O)cccc3F)nc2c1 [Compound 11, (R)-Neopentyl 1-(2-(2-fluoro-6-hydroxyphenyl)-7-methylquinazolin-4-yl)pyrrolidin-3-ylcarbamate] | < 1000 nM
10 | CC(C)(C)COC(=O)N[C@@H]1CCN(c2nc(-c3ccccc3O)nc3ccc(F)cc23)C1 [Compound 4, (R)-Neopentyl 1-(6-fluoro-2-(2-hydroxyphenyl)quinazolin-4-yl)pyrrolidin-3-ylcarbamate] | > 5000 nM

Second part, the compound after the results:

Row | IC50 | Compound
11 | 1000 to 5000 nM | COCCOC(=O)N[C@@H]1CCN(c2nc(-c3c(O)cccc3F)nc3cc(C)ccc23)C1 [Compound 1, (R)-2-Methoxyethyl 1-(2-(2-fluoro-6-hydroxyphenyl)-7-methylquinazolin-4-yl)pyrrolidin-3-ylcarbamate]
12 | < 1000 nM | Cc1ccc2c(N3CC[C@@H](NC(=O)OCC(C)C)C3)nc(-c3ccccc3O)nc2c1 [Compound 5, (R)-Isobutyl 1-(2-(2-hydroxyphenyl)-7-methylquinazolin-4-yl)pyrrolidin-3-ylcarbamate]
13 | 1000 to 5000 nM | CCOC(=O)N[C@@H]1CCN(c2nc(-c3c(O)cccc3F)nc3cc(C)ccc23)C1 [Compound 10, (R)-Ethyl 1-(2-(2-fluoro-6-hydroxyphenyl)-7-methylquinazolin-4-yl)pyrrolidin-3-ylcarbamate]
14 | < 1000 nM | CCCOC(=O)N[C@@H]1CCN(c2nc(-c3c(O)cccc3F)nc3cc(C)ccc23)C1 [Compound 13, (R)-Propyl 1-(2-(2-fluoro-6-hydroxyphenyl)-7-methylquinazolin-4-yl)pyrrolidin-3-ylcarbamate]
15 | < 1000 nM | Cc1ccc2c(N3CC[C@@H](NC(=O)OCC(C)C)C3)nc(-c3ccccc3C(F)F)nc2c1 [Compound 17, (R)-Isobutyl 1-(2-(2-(difluoromethyl)phenyl)-7-methylquinazolin-4-yl)pyrrolidin-3-ylcarbamate]
16 | 1000 to 5000 nM | CC(C)OC(=O)N[C@@H]1CCN(c2nc(-c3ccccc3O)nc3ccc(F)cc23)C1 [Compound 16, (R)-Isopropyl 1-(6-fluoro-2-(2-hydroxyphenyl)quinazolin-4-yl)pyrrolidin-3-ylcarbamate]
17 | < 1000 nM | Cc1ccc2c(N3CC[C@@H](NC(=O)OCC(C)C)C3)nc(-c3c(O)cccc3F)nc2c1 [Compound 8, (R)-Isobutyl 1-(2-(2-fluoro-6-hydroxyphenyl)-7-methylquinazolin-4-yl)pyrrolidin-3-ylcarbamate]
18 | > 5000 nM | COCCOC(=O)N[C@H]1CCN(c2nc(-c3ccccc3O)nc3cc(C)ccc23)C1 [Compound 6, (S)-{1-[2-(2-Hydroxy-phenyl)-7-methyl-quinazolin-4-yl]-pyrrolidin-3-yl}-carbamic acid 2-methoxy-ethyl ester]
